According to publication PMC5902495, “Synthesis of Symmetrical Tetrameric Conjugates of the Radiolanthanide Chelator DOTPI for Application in Endoradiotherapy by Means of Click Chemistry” (Frontiers in Chemistry, 2018):

Test: Stability and protonation constants of Cu^II complexes (spectrophotometry, pH-potentiometry)
Format: physicochemical
Settings: 25°C, 0.15 M NaCl
Protocol: Stability constant of Cu(DOTPI) complex was determined by spectrophotometry, studying the Cu^II-DOTPI systems at the absorption band of Cu^II-complex at [H^+] = 0.01– 0.2 M over the wavelength range of 400–800 nm. Concentrations of Cu^II and DOTPI were 1 mM. The H^+ concentration in the samples was adjusted by addition of calculated amounts of 2.0 M HCl, while ionic strength was not constant in these samples. Samples were kept at 25°C for a week. Absorbance values were determined at 9 wavelengths (550, 575, 600, 625, 650, 675, 700, 725, and 750 nm). For calculation of stability and protonation constants of Cu(DOTPI), molar absorptivities of CuCl2, and Cu(HxL) species (wherein x = 0, 1, 2 …5) were determined by recording the spectra of 1.0 × 10^−3, 2.0 × 10^−3 and 3.0 × 10^−3 M solutions of CuCl2 and Cu(DOTPI) in the pH range of 1.7–11.7. The protonation constants of the complexes Cu(DOTPI) and the stability and protonation constants of the dinuclear Cu2(DOTPI) complexes were determined by pH-potentiometric titrations, made at 1:1 and 2:1 metal to ligand concentration ratios.
The stability constant of the Cu(DOTPI(Chx)4) complex has been determined by spectrophotometry with the use of competition reactions between DOTPI(Chx)4 and EDTA for the Cu^2+ at pH = 5.0. The concentration of Cu(EDTA) was 0.2 mM, while that of the DOTPI(Chx)4 was varied between 0.1 and 1.0 mM (5 samples). The samples were kept at 25°C for 2 weeks. The absorbance values and the molar absorptivities of CuCl2, Cu(DOTPI(Chx)4), and Cu(EDTA) have been determined at 11 wavelength (300, 304, 308, 312, 316, 320, 324, 328, 332, 336, and 340 nm) values between 300 and 340 nm. The molar absorptivities of CuCl2, Cu(DOTPI(Chx)4), and Cu(EDTA) were deteremined in 0.05, 0.1, 0.2, 0.3, and 0.4 mM solutions. The absorbance and pH values were determined in the samples after the equilibrium was reached (the time needed to reach the equilibria was determined by spectrophotometry). The spectrophotometric measurements were made with the use of 1.0 cm cells with a Cary 1E spectrophotometer at 25°C. The protonation constants of Cu(DOTPI(Chx)4) complex were determined by pH-potentiometric titrations at 1:1 metal to ligand molar ratio.
For pH measurements and titrations, a Metrohm 785 DMP Titrino titration workstation and a Metrohm-6.0233.100 combined electrode were used. Equilibrium measurements were carried out at a constant ionic strength (0.15 M NaCl) in 6 mL samples at 25°C. The solutions were stirred, and constantly purged with N2. The titrations were performed in a pH range of 1.7–11.7. KH-phthalate (pH = 4.005) and borax (pH = 9.177) buffers were used to calibrate the pH meter. For calculation of [H^+] from measured pH values, the method proposed by Irving et al. was used (Irving et al., [1967]). A 0.01 M HCl solution was titrated with the standardized NaOH solution in the presence of 0.1 M NaCl. Differences between the measured (pHread) and calculated pH (–log[H^+]) values were used to obtain the equilibrium H^+ concentration from the pH values, measured in the titration experiments. For the equilibrium calculations, the stoichiometric water ionic product (pKw) is also needed to calculate [H^+] values in basic conditions. […] For the calculation of the equilibrium constants the program PSEQUAD (Zekany and Nagypal, [1985]) was used.
2. Protonation and complexation equilibria of DOTPI and
The protonation processes of the DOTPI and DOTPI(Chx)4, ligands have been studied by pH-potentiometry. The protonation constants (logKiH) of ligands are defined according to Eq. (1).
The stability and protonation constants of DOTPI and DOTPI(Chx)4 complexes with several metal ions were determined by pH-potentiometric and UV/Vis spectrophotometric, methods.
The stability and protonation constants of the metal complexes formed with the DOTPI and […]

O=C(O)CCP(=O)(O)CN1CCN(CP(=O)(O)CCC(=O)O)CCN(CP(=O)(O)CCC(=O)O)CCN(CP(=O)(O)CCC(=O)O)CC1 [DOTPI, 1,4,7,10-tetraazacyclododecane-1,4,7,10-tetrakis[methylene(2-carboxyethylphosphinic acid)]]
protonation constant Cu2LH: 5.04 (3) | protonation constant Cu2LH2: 4.71 (5) | protonation constant CuH2L: 5.07 (1) | protonation constant CuH3L: 4.49 (2) | protonation constant CuH4L: 4.20 (2) | protonation constant CuH5L: 2.35 (3) | protonation constant CuHL: 5.68 (2) | stability constant of dinuclear complex Cu2L: 4.49 (6)
